Experimental data from patent EP0447186A1, “N-acylated cyclohexapeptide compounds” (MERCK & CO. INC., priority 1990, dated 1991).
Starred links: 1 amine or outer side, 2 acyl side, 3 side chain; linkers in the order of their positions; H or OH if unused. Positions of bridges follow the written chain, without caps; N, C: chain ends. Non-standard residues stand in square brackets, D forms with d. Residues, ends and D or L forms follow the SMILES beside them. ξ: configuration not given here. ξOrn(4,5-diOH) = O=C(C(CC(O)C(O)N[*:3])N[*:1])[*:2]; ξhTyr(βξ-OH,γξ-OH) = NC(C(=O)O)C(O)C(O)c1ccc(O)cc1; X1 = NC(=O)CC(O)C(N[*:1])C(=O)[*:2]; X2 = O=C(C1C(O)CCN1[*:1])[*:2]; Hyp = O=C(O)[CH]1C[CH](O)CN1

Tested on: Candida albicans
Assay: Candida albicans bioassay
Type: cell-based
Conditions: bioassay used to monitor HPLC fractions
Procedure: In carrying out the reaction, Compound A, either as a purified compound or as a partially purified sample obtained from the deacylation of Compound B, is dissolved in dry dimethylformamide and the resulting solution intimately contacted with RCOX. The order of addition is not critical. The resulting mixture is stirred at room temperature for about 16 to 20 hours (conveniently overnight) whereupon a reaction takes place with the formation of Compound I. At the end of this period, the dimethylformamide is removed by concentrating in vacuo at 40°C and the resulting residue triturated, preferably sequentially, twice with ether, and then filtered. The filter cake product is generally a free flowing solid and is purified by reverse phase HPLC, typically in 0.5 gram aliquots employing acetonitrile/water as eluting agent. Fractions containing the purified product as determined by C. albicans assay, by U.V. or by refractive index are combined and first concentrated under reduced pressure and then lyophilized to separate the product.

CC(O)C1NC(=O)C(N)CC(O)C(O)NC(=O)C2C(O)CCN2C(=O)C(C(O)CC(N)=O)NC(=O)C(C(O)C(O)c2ccc(O)cc2)NC(=O)C2CC(O)CN2C1=O (stereo not drawn) [non-acylated cyclohexapeptide compound] (H-[ξOrn(4,5-diOH)]T[Hyp][ξhTyr(βξ-OH,γξ-OH)][X1][X2]; lactam 1-C; configuration not given here)
activity against Candida albicans: inactive
